# System: 777334-354-R2-J4-PDC tumor spheroids with HUVEC/MSC, viability
# Test: Anticancer human tumor 777334-354-R2-J4-PDC patient-derived pancreatic adenocarcinoma cell line growth inhibition [GQUAD]
# Settings: for IC50: curve of first compound; for viability, T/C: stronger effect = lower value
# Summary of the method: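 Multi-cell-type spheroids of tumor cells with HUVEC and mesenchymal stem cells, treated with drug combinations. Concentrations descend in half-log steps from near clinical Cmax, or from 10 microM where Cmax is unknown; viability read-out.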
# [1] = second compound 0.0316 µM, first compound 0.0316 µM
# [2] = second compound 0.0316 µM, first compound 0.1 µM
# [3] = second compound 0.0316 µM, first compound 0.316 µM
# [4] = second compound 0.0316 µM, first compound 1 µM
# [5] = second compound 0.0316 µM, first compound 3.16 µM
# [6] = second compound 0.0316 µM, first compound 10 µM
# [7] = second compound 0.1 µM, first compound 0.0316 µM
# [8] = second compound 0.1 µM, first compound 0.1 µM
# [9] = second compound 0.1 µM, first compound 0.316 µM
# [10] = second compound 0.1 µM, first compound 1 µM
# [11] = second compound 0.1 µM, first compound 3.16 µM
# [12] = second compound 0.1 µM, first compound 10 µM
# [13] = second compound 0.316 µM, first compound 0.0316 µM
# [14] = second compound 0.316 µM, first compound 0.1 µM
# [15] = second compound 0.316 µM, first compound 0.316 µM
# [16] = second compound 0.316 µM, first compound 1 µM
# [17] = second compound 0.316 µM, first compound 3.16 µM
# [18] = second compound 0.316 µM, first compound 10 µM
# [19] = second compound 1 µM, first compound 0.0316 µM
# [20] = second compound 1 µM, first compound 0.1 µM
# [21] = second compound 1 µM, first compound 0.316 µM
# [22] = second compound 1 µM, first compound 1 µM
# [23] = second compound 1 µM, first compound 3.16 µM
# [24] = second compound 1 µM, first compound 10 µM
# [25] = second compound 3.16 µM, first compound 0.0316 µM
# [26] = second compound 3.16 µM, first compound 0.1 µM
# [27] = second compound 3.16 µM, first compound 0.316 µM
# [28] = second compound 3.16 µM, first compound 1 µM
# [29] = second compound 3.16 µM, first compound 3.16 µM
# [30] = second compound 3.16 µM, first compound 10 µM
# [31] = second compound 10 µM, first compound 0.0316 µM
# [32] = second compound 10 µM, first compound 0.1 µM
# [33] = second compound 10 µM, first compound 0.316 µM
# [34] = second compound 10 µM, first compound 1 µM
# [35] = second compound 10 µM, first compound 3.16 µM
# [36] = second compound 10 µM, first compound 10 µM
# 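Further: spheroids exposed to compounds for 7 days before readout.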
smiles,measurement,setting,value
CC(=O)O[C@H]1C(=O)[C@@]2(C)[C@H]([C@H](OC(=O)c3ccccc3)[C@]3(O)C[C@H](OC(=O)[C@H](O)[C@@H](NC(=O)c4ccccc4)c4ccccc4)C(C)=C1C3(C)C)[C@]1(OC(C)=O)CO[C@@H]1C[C@@H]2O + Cc1[nH]c2ccc(F)cc2c1-c1nc2c3cccnc3c3ncccc3c2[nH]1,IC50,second compound 0.0316 µM,291 nM
same,IC50,second compound 0.1 µM,305 nM
same,IC50,second compound 0.316 µM,222 nM
same,IC50,second compound 1 µM,240 nM
same,IC50,second compound 3.16 µM,< 31.6 nM
same,IC50,second compound 10 µM,< 31.6 nM
same,"viability, T/C",[1],97.1%
same,"viability, T/C",[2],66%
same,"viability, T/C",[3],49.7%
same,"viability, T/C",[4],41.1%
same,"viability, T/C",[5],51.8%
same,"viability, T/C",[6],43.3%
same,"viability, T/C",[7],94.9%
same,"viability, T/C",[8],59.9%
same,"viability, T/C",[9],48.4%
same,"viability, T/C",[10],46.4%
same,"viability, T/C",[11],49.6%
same,"viability, T/C",[12],47.6%
same,"viability, T/C",[13],81.4%
same,"viability, T/C",[14],59.5%
same,"viability, T/C",[15],45.6%
same,"viability, T/C",[16],45.2%
same,"viability, T/C",[17],47.5%
same,"viability, T/C",[18],44.1%
same,"viability, T/C",[19],70.9%
same,"viability, T/C",[20],58.5%
same,"viability, T/C",[21],44.2%
same,"viability, T/C",[22],45.3%
same,"viability, T/C",[23],44.6%
same,"viability, T/C",[24],38.1%
same,"viability, T/C",[25],35.9%
same,"viability, T/C",[26],28%
same,"viability, T/C",[27],22.2%
same,"viability, T/C",[28],17.4%
same,"viability, T/C",[29],17.8%
same,"viability, T/C",[30],15%
same,"viability, T/C",[31],30.7%
same,"viability, T/C",[32],23%
same,"viability, T/C",[33],19.6%
same,"viability, T/C",[34],14%
same,"viability, T/C",[35],15.3%
same,"viability, T/C",[36],15.7%
CC1COCCN1c1cc(C2(O)CC3CCC(C2)O3)c2cnn(-c3ccn[nH]3)c2n1 (stereo unspecified) + Cc1[nH]c2ccc(F)cc2c1-c1nc2c3cccnc3c3ncccc3c2[nH]1,IC50,second compound 0.0316 µM,302 nM
same,IC50,second compound 0.1 µM,364 nM
same,IC50,second compound 0.316 µM,384 nM
same,IC50,second compound 1 µM,186 nM
same,IC50,second compound 3.16 µM,< 31.6 nM
same,IC50,second compound 10 µM,< 31.6 nM
same,"viability, T/C",[1],93.8%
same,"viability, T/C",[2],59.3%
same,"viability, T/C",[3],52.8%
same,"viability, T/C",[4],38.3%
same,"viability, T/C",[5],33.2%
same,"viability, T/C",[6],19%
same,"viability, T/C",[7],98.7%
same,"viability, T/C",[8],66.1%
same,"viability, T/C",[9],56%
same,"viability, T/C",[10],36.5%
same,"viability, T/C",[11],31.9%
same,"viability, T/C",[12],23%
same,"viability, T/C",[13],84.6%
same,"viability, T/C",[14],67.1%
same,"viability, T/C",[15],50.6%
same,"viability, T/C",[16],39.8%
same,"viability, T/C",[17],31.4%
same,"viability, T/C",[18],20.8%
same,"viability, T/C",[19],66.8%
same,"viability, T/C",[20],56%
same,"viability, T/C",[21],44.9%
same,"viability, T/C",[22],31.6%
same,"viability, T/C",[23],21.3%
same,"viability, T/C",[24],16.9%
same,"viability, T/C",[25],25.2%
same,"viability, T/C",[26],18.8%
same,"viability, T/C",[27],11.6%
same,"viability, T/C",[28],8.38%
same,"viability, T/C",[29],6.83%
same,"viability, T/C",[30],4.02%
same,"viability, T/C",[31],21.8%
same,"viability, T/C",[32],16.9%
same,"viability, T/C",[33],12.8%
same,"viability, T/C",[34],7.12%
same,"viability, T/C",[35],7.7%
same,"viability, T/C",[36],4.01%
Cn1ncnc1[C@H]1c2n[nH]c(=O)c3cc(F)cc(c23)N[C@@H]1c1ccc(F)cc1 + Cc1cnc(CNC(=O)c2c(=O)c3ccc(N4CCCN(C)CC4)nc3n3c2sc2ccccc23)cn1,IC50,second compound 0.0316 µM,> 316 nM
same,IC50,second compound 0.1 µM,> 316 nM
same,IC50,second compound 0.316 µM,> 316 nM
same,IC50,second compound 1 µM,> 316 nM
same,IC50,second compound 3.16 µM,> 316 nM
same,IC50,second compound 10 µM,> 316 nM
same,"viability, T/C","second compound 0.0316 µM, first compound 0.000999 µM",97.7%
same,"viability, T/C","second compound 0.0316 µM, first compound 0.00316 µM",86.3%
same,"viability, T/C","second compound 0.0316 µM, first compound 0.00999 µM",96.8%
same,"viability, T/C",[1],95%
same,"viability, T/C","second compound 0.0316 µM, first compound 0.0999 µM",104%
same,"viability, T/C",[3],88%
same,"viability, T/C","second compound 0.1 µM, first compound 0.000999 µM",86.4%
same,"viability, T/C","second compound 0.1 µM, first compound 0.00316 µM",72.6%
same,"viability, T/C","second compound 0.1 µM, first compound 0.00999 µM",90.8%
same,"viability, T/C",[7],86.2%
same,"viability, T/C","second compound 0.1 µM, first compound 0.0999 µM",94.5%
same,"viability, T/C",[9],78.2%
same,"viability, T/C","second compound 0.316 µM, first compound 0.000999 µM",83.7%
same,"viability, T/C","second compound 0.316 µM, first compound 0.00316 µM",81.1%
same,"viability, T/C","second compound 0.316 µM, first compound 0.00999 µM",71.9%
same,"viability, T/C",[13],79.6%
same,"viability, T/C","second compound 0.316 µM, first compound 0.0999 µM",87.5%
same,"viability, T/C",[15],68%
same,"viability, T/C","second compound 1 µM, first compound 0.000999 µM",77.7%
same,"viability, T/C","second compound 1 µM, first compound 0.00316 µM",74.1%
same,"viability, T/C","second compound 1 µM, first compound 0.00999 µM",64.4%
same,"viability, T/C",[19],71.3%
same,"viability, T/C","second compound 1 µM, first compound 0.0999 µM",76.5%
same,"viability, T/C",[21],62.5%
same,"viability, T/C","second compound 3.16 µM, first compound 0.000999 µM",60.7%
same,"viability, T/C","second compound 3.16 µM, first compound 0.00316 µM",63.8%
same,"viability, T/C","second compound 3.16 µM, first compound 0.00999 µM",57.3%
same,"viability, T/C",[25],60.6%
same,"viability, T/C","second compound 3.16 µM, first compound 0.0999 µM",61%
same,"viability, T/C",[27],54%
same,"viability, T/C","second compound 10 µM, first compound 0.000999 µM",52.1%
same,"viability, T/C","second compound 10 µM, first compound 0.00316 µM",58.4%
same,"viability, T/C","second compound 10 µM, first compound 0.00999 µM",58.2%
same,"viability, T/C",[31],68.7%
same,"viability, T/C","second compound 10 µM, first compound 0.0999 µM",56.1%
same,"viability, T/C",[33],51.8%
